Data set [1] can be described thus: Nose temperature after ingestion in human subjects. Particulars: fifteen minutes following ingestion, FIG. 7. Format: in vivo. How it is done:
The nose temperature of the subjects was analyzed over the fifteen minutes following ingestion of the various compounds.

Data set [2] can be described thus: Chin temperature after ingestion in human subjects (sympathetic autonomic activity). It counts as in vivo. Particulars: for AUC difference in chin temperature relative to placebo: Z10, comparison vs Pl (placebo). How it is done: The chin temperature of the subjects was measured over the eighty minutes following ingestion of the various compounds. […] The increased sympathetic activity identified by measuring the facial temperature (increased blood flow on the chin) might explain the increased energy expenditure measured by indirect calorimetry.

Data set [3] is described as follows: Comparative taste testing in human subjects. It counts as in vivo. Particulars: 4.8 ppm capsaicin or 350 ppm cinnamaldehyde, FIG. 9. How it is done: Human subjects were administered a composition comprising 4.8 ppm capsaicin or 350 ppm cinnamaldehyde. […] 87.9% of the participants judged capsaicin intense to very intense, compared to only 20.5% for cinnamaldehyde. To achieve a similar effect on fat oxidation of capsaicin and cinnamaldehyde, the dose of capsaicin is about 1.5 times less than the maximum that can be used as a flavor (7 ppm according to Fenaroli's Handbook; Burdock, 2010), and the dose of cinnamaldehyde is about 17.5 times less than the maximum that can be used as a flavor (6191.0 ppm according to Fenaroli's Handbook; Burdock, 2010).

Data set [4] in a line: Energy expenditure after ingestion in human subjects. It counts as in vivo. How it is done:
Human subjects were administered placebo, a cooling flavor, capsaicin, or cinnamaldehyde. The energy expenditure was measured over the eighty minutes following ingestion.

Data set [5] is described as follows: Postprandial fat oxidation after ingestion in human subjects. Format: in vivo. On the procedure:
The postprandial fat oxidation was measured over the 90 minutes following ingestion of the various compounds.

The target of data set [6] is T1, hTRPA1 expressed in CHO cells (Homo sapiens, UniProt O75762).
T1 construct: expressed in transfected cells; host or cells: CHO cells
T1 sequence (O75762 whole entry): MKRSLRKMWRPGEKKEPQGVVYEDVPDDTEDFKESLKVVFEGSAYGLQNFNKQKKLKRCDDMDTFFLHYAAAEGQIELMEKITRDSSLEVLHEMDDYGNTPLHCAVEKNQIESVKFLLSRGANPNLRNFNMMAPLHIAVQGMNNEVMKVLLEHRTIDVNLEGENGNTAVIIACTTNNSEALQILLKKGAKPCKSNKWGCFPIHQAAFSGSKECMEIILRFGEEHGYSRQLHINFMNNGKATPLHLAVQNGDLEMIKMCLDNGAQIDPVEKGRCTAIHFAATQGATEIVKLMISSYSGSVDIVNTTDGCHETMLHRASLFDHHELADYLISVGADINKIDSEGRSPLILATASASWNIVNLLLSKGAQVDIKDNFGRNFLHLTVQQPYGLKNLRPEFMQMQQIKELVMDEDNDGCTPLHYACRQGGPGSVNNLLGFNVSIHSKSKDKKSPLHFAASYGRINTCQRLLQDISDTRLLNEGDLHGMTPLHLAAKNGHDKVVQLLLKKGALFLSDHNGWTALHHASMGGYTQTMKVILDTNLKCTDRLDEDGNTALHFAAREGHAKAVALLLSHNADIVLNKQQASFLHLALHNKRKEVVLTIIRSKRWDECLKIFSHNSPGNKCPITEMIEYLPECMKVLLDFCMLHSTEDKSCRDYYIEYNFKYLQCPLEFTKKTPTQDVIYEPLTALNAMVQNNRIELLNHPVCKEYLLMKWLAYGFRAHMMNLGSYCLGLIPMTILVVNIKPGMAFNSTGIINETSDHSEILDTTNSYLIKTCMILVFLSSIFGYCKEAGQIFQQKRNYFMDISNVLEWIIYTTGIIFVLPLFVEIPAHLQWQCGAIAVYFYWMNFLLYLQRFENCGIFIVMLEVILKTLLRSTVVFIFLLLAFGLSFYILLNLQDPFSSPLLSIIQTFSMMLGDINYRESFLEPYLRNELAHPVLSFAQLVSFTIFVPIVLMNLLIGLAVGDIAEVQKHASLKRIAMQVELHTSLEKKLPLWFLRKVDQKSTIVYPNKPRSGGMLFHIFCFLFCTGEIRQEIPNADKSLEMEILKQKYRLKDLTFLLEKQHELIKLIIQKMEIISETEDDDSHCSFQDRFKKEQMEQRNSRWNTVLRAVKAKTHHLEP
In words: In vitro activity of hTRPA1 expressed in CHO cells (intracellular calcium, fluorescent dye). Format: cell-based. Also on record: in vitro activity of hTRPA1, positive control efficacy: dose or concentration left out as unconfirmed. (In general: A change in cytosolic calcium serves as a functional read-out for many receptors and channels.)

The next data set concerns the target TRPA1 (Homo sapiens, UniProt O75762). Particulars: background statement; read-out: EC50 for activation of TRPA1; cited from earlier work.
The target of the next data set is TRPV1 (Homo sapiens, UniProt Q8NER1). Particulars: background statement; cited from earlier work.
Sequence of TRPV1 (Q8NER1 whole entry, species assumed): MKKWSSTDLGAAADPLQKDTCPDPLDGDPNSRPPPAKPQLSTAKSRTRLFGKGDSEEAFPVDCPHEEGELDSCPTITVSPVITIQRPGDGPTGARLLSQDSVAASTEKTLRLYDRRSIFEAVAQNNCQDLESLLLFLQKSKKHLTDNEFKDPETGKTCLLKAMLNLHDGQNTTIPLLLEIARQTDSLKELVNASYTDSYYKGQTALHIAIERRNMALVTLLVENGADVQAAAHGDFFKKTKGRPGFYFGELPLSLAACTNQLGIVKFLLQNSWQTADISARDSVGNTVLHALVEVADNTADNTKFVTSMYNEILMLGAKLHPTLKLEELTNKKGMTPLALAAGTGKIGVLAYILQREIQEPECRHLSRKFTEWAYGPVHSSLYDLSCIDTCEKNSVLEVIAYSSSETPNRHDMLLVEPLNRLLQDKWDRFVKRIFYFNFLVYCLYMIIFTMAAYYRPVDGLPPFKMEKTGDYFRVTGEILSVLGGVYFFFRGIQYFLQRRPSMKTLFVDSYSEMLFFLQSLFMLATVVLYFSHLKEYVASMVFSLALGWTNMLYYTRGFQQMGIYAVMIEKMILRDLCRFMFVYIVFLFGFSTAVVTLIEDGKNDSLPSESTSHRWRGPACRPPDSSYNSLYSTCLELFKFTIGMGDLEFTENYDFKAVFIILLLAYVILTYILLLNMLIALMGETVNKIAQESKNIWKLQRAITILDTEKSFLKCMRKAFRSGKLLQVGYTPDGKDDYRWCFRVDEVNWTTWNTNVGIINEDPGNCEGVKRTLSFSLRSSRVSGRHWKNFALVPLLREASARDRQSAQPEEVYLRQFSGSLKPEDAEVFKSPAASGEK
The next data set has as its target TRPM8 (Homo sapiens, UniProt Q7Z2W7). Particulars: background statement; cited from earlier work.
The mark [7] stands for this setting: flavoring level of cinnamaldehyde judged significantly less intense than capsaicin.

Sequence of TRPA1 (O75762 whole entry, species assumed): as the sequence (O75762 whole entry) above
Sequence of TRPM8 (Q7Z2W7 whole entry, species assumed): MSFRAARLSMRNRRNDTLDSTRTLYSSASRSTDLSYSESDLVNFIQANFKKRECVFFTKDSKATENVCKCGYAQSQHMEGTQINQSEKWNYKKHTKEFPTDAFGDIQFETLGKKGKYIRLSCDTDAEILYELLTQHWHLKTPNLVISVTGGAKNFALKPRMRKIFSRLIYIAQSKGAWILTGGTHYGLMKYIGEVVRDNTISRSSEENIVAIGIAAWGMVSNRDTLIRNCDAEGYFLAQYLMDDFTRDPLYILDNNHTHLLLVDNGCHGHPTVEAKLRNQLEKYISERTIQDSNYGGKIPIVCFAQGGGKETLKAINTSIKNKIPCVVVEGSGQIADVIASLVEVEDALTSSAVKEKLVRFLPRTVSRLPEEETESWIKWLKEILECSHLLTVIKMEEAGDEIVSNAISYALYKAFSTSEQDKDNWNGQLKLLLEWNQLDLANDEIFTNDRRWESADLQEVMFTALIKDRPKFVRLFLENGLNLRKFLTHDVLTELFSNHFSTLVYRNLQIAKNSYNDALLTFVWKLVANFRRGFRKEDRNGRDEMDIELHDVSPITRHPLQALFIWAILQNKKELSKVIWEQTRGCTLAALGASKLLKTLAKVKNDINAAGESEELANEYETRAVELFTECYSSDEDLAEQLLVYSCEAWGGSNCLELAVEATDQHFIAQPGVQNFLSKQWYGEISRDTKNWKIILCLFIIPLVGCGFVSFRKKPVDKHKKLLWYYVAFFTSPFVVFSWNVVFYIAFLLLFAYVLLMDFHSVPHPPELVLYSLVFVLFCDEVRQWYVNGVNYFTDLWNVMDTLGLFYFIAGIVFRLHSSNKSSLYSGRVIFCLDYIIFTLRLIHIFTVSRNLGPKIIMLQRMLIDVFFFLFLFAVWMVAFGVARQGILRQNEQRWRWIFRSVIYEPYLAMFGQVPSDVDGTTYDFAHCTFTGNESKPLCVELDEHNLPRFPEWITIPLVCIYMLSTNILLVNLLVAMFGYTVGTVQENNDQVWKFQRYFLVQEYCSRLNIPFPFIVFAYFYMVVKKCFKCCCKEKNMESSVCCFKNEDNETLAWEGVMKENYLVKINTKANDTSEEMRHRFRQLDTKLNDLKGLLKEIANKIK

In the case of `COc1cc(CNC(=O)CCCC/C=C/C(C)C)ccc1O` [capsaicin, reference compound], in data set [1], the nose temperature entry is “increase nose temperatures”. Further, the “AUC difference in chin temperature relative to placebo” value in data set [2] (human subjects) is listed as 25.26. Also, the “participants who judged the taste intense to very intense” value in data set [3] is given as 87.9%.
Consider `O=CC=Cc1ccccc1` [cinnamaldehyde], for which, in data set [4] (setting [7]), the “impact on energy expenditure compared to capsaicin” value was “significantly higher impact”. In addition, the “energy expenditure compared to placebo” value in data set [4] (human subjects, over the eighty minutes following ingestion, FIGS. 3 and 4) was “increased”. For the same compound, the “effect on fat oxidation compared to capsaicin” value in [5] (setting [7]) was “equivalent effect”. Also, the “postprandial fat oxidation compared to placebo” value in data set [5] (human subjects, over the 90 minutes following ingestion, FIGS. 5 and 6) is listed as “maintained at higher levels”. For the same compound, the nose temperature result in [1] is “increase nose temperatures”. In data set [2] (setting [7]), the “impact on sympathetic nervous system activity compared to capsaicin” value was “significantly higher impact”. Besides, in [2] (human subjects), the “AUC difference in chin temperature relative to placebo” value was found to be 34.072. The “chin temperature relative to baseline” value in [2] (human subjects, over the eighty minutes following ingestion, FIG. 8) is on record as “increases chin temperature for a prolonged time”. Also, in data set [6] (according to a dose-response curve), the “in vitro activity of hTRPA1, positive control efficacy” value is recorded as “maximum efficacy”. The EC50 at TRPA1 was around 10 µM. The “activation of TRPV1” value on TRPV1 is “not”. The “activation of TRPM8” value at TRPM8 is “not”.
For `[Zn]` [zinc], the “zinc concentration required for synergy with cinnamaldehyde on TRPA1” value in data set [6] (in vitro) is below 1 µM.

In general, EC50 refers to the concentration that produces a half-maximal response.

The record behind these values is patent US20220133782A1, “METHODS AND COMPOSITIONS FOR USING CINNAMALDEHYDE AND ZINC FOR WEIGHT MANAGEMENT” (SOCIÉTÉ DES PRODUITS NESTLÉ S.A., priority 2014, published 2022).
